Source: article PMC11714206, “Massively Parallel Screening of Toll/Interleukin‐1 Receptor (TIR)‐Derived Peptides Reveals Multiple Toll‐Like Receptors (TLRs)‐Targeting Immunomodulatory Peptides” (Advanced Science, 2024)
Values belong to the substance of their own block, whether it stands above or below them.

Molecular target: T1, MAL^TIR (Homo sapiens, UniProt P58753)
T1 construct: MAL (residues 79–221); 6xHis; made in house; host or cells: E. coli BL21 (DE3)
Experiment: T‐Surf phage library (P8 and P3) selection against MAL^TIR, four rounds, NGS read counts
Type: binding
Conditions: for P8_MAL Rank (after) / P8_MAL Rank (before): P8 library; for P3_MAL Rank (after) / P3_MAL Rank (before): P3 library; for Population: P8_MAL pool: P8 T-Surf phage library, 4th round of selection against MAL TIR, share of NGS reads
Procedure: T‐Surf libraries were screened against the immobilized TIR domains of two major human TLR adaptor proteins, MAL^TIR and MyD88^TIR, allowing cross‐species selection of TIR‐binding motifs with 190 946 TIR‐derived peptides in a single binding assay (Scheme 1). Enriched phage pools from the fourth round of selection were analyzed using NGS after barcoding the peptide‐coding regions of the phage pools.
Phage display screening was performed by coating two wells of a 96‐well plate (Maxisorp, Thermo Fisher Scientific) with 100 µL of 5 µg mL^−1 TIR domains overnight; then, the coated wells were blocked with 200 µL of blocking buffer (0.2% BSA in PBS) and set aside for 1 h at 4 °C with gentle shaking. Next, 100 µL of the phage library was added to the wells and incubated for 1 h at room temperature (RT; 20 – 22 °C) with gentle shaking. The plate was washed four times with PBS containing 0.5% Tween‐20; the bound phages were eluted by adding 100 µL of 100 mM HCl to each well. The elute was neutralized with 10 µL of 1.0 M Tris‐HCl (pH 11.0). E. coli TG1 cells were grown to the log phase (A600 = ≈0.6), and 1 mL of the culture was incubated with 100 µL of the eluted phages for 30 min at 37 °C, with shaking at 200 rpm. Next, 1 µL of M13KO7 helper phages was added, followed by incubation for 45 min at 37 °C, with shaking. Subsequently, the cells were transferred to 25 mL of 2× yeast extract tryptone/carbenicillin/kanamycin medium and incubated overnight at 37 °C with shaking at 200 rpm. The amplified phages were precipitated with 20% PEG‐8000/2.5 M NaCl to be used for the next round of selection.
The naïve T‐Surf libraries in P8 and P3 and the enriched phage pools after four rounds were barcoded for NGS as previously described.^[ [59] ^] Briefly, 5 µL of the phage pool was used as a template for 20 cycles of a 50 µL PCR reaction using […] each of forward and reverse barcoded primers and PrimeSTAR Max DNA Polymerase. The PCR products were purified using Expin Gel SV (GeneAll). The NGS samples were quantified using qPCR, following the qPCR Quantification Protocol Guide (KAPA Library Quantification kits for Illumina Sequencing Platform), and qualified using the TapeStation High Sensitivity D1000 ScreenTape (Agilent Technologies). The indexed libraries were further sequenced by Macrogen (Seoul, Republic of Korea) using the NovaSeq platform (Illumina) with 100 bp paired‐end reads. The reads were demultiplexed by barcodes and filtered for an average Phred quality score of at least 30, followed by trimming the flanking consensus sequences using Cutadapt (version 2.3). Peptide sequence populations were analyzed according to the read counts.

[1] = selection against MAL, rank after grouping
[2] = selection against MAL, rank before grouping
[3] = P8_MAL: rank by count after grouping
[4] = P8_MAL: rank by count before grouping
[5] = selection against MAL, rank by count after grouping
[6] = selection against MAL, rank by count before grouping
[7] = selection against MAL TIR, rank by count after grouping
[8] = selection against MAL TIR, rank by count before grouping
[9] = 4R selection against MAL, rank after grouping
[10] = 4R selection against MAL, rank before grouping
[11] = P3_MAL: rank by count after grouping
[12] = P3_MAL: rank by count before grouping

T1 sequence (P58753 79-221): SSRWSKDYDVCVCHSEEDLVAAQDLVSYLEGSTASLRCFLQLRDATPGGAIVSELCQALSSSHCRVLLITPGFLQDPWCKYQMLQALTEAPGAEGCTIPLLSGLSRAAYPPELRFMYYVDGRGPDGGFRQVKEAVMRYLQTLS

Substance: SLRKKLVRNLIEEFKR
P3_MAL Rank (after) [5]: 688
P3_MAL Rank (before) [6]: 3100

Substance: TFLGHLYNTLVQACIH
P8_MAL Rank (after) [9]: 650
P8_MAL Rank (before) [10]: 2598

Substance: SLQYAHLRWLGIRAFL
P8_MAL Rank (after) [7]: 206
P8_MAL Rank (before) [8]: 2523

Substance: KLQECRDTLRKIADFF
P3_MAL Rank (after) [1]: 494
P3_MAL Rank (before) [2]: 3627

Substance: WSYERLVRLILRDTKV
P8_MAL Rank (after) [1]: 539
P8_MAL Rank (before) [2]: 1406

Substance: AFLYAFLINLTHPTNI
Rank (after) [3]: 142
Rank (before) [4]: 1812

Substance: AFPDTFLIKLPHPTNV
P8_MAL Rank (after) [9]: 611
P8_MAL Rank (before) [10]: 1918

Substance: VGWFLHTLCQLILQKG
P3_MAL Rank (after) [9]: 632
P3_MAL Rank (before) [10]: 1630

Substance: KSILDTEARIWGWLFA
P3_MAL Rank (after) [7]: 248
P3_MAL Rank (before) [8]: 3718

Substance: AFLYTFLINLAHPTNF
Population: 0.00278%

Substance: AFFWPKLKSGLGNPTM
P8_MAL Rank (after) [9]: 635
P8_MAL Rank (before) [10]: 1717

Substance: AFFWEQMRTVLGKPTT
P8_MAL Rank (after) [9]: 612
P8_MAL Rank (before) [10]: 1710

Substance: TFLGHLYIALVQTGIH
P8_MAL Rank (after) [7]: 261
P8_MAL Rank (before) [8]: 2558

Substance: AFLYTFLNNLTHPTKF
Rank (after) [3]: 94
Rank (before) [4]: 1870

Substance: RLLKWKDALYEAANLS
Rank (after) [11]: 110
Rank (before) [12]: 342

Substance: SAAYDDFWDRLIRMIE
Rank (after) [3]: 173
Rank (before) [4]: 1007

Substance: GWFREGLWRLLELSKK
P3_MAL Rank (after) [7]: 279
P3_MAL Rank (before) [8]: 1756

Substance: YAFTGHLHRSLVQSGV
Rank (after) [11]: 154
Rank (before) [12]: 1381

Substance: WFYELLVSLIVRDTKV
Rank (after) [3]: 394
Rank (before) [4]: 1150

Further lines, results first:

P8_MAL Rank (after) [1]: 559
P8_MAL Rank (before) [2]: 1113
Substance: WFFERLVRPILRGTQG

Rank (after) [3]: 450
Rank (before) [4]: 1803
Substance: AFLFTFLINLTHPSNF

P8_MAL Rank (after) [7]: 258
P8_MAL Rank (before) [8]: 1666
Substance: AFFWDSCVPCWANRR

P3_MAL Rank (after) [5]: 711
P3_MAL Rank (before) [6]: 1475
Substance: YAFTSHLHHALRLNKIETF

Rank (after) [3]: 163
Rank (before) [4]: 1430
Substance: WIYERLVSRILRDTKV

P3_MAL Rank (after) [7]: 191
P3_MAL Rank (before) [8]: 1095
Substance: KEVEGWRDALPHRYEP

Rank (after) [3]: 141
Rank (before) [4]: 836
Substance: AFFWEQLRTVLDHVNDV

Population: 0.00309%
Substance: AFFWAQLKSVLGNPTL

P3_MAL Rank (after) [1]: 531
P3_MAL Rank (before) [2]: 1326
Substance: SNLRPKVLNYLMRTKI

Rank (after) [3]: 446
Rank (before) [4]: 1237
Substance: WFYERLVRLFLRDTKV

P8_MAL Rank (after) [1]: 517
P8_MAL Rank (before) [2]: 1886
Substance: AFLYTVLINLTHTTYF

Rank (after) [11]: 174
Rank (before) [12]: 955
Substance: PNLRTKVLNYLMRTK

Rank (after) [11]: 155
Rank (before) [12]: 2759
Substance: PKLRTKVMNYLMRTKT

P3_MAL Rank (after) [7]: 254
P3_MAL Rank (before) [8]: 737
Substance: YAFTGHLHRYLLQKM

P8_MAL Rank (after) [1]: 571
P8_MAL Rank (before) [2]: 1798
Substance: AFLYAFLISLTHTTTF

P3_MAL Rank (after) [5]: 683
P3_MAL Rank (before) [6]: 1767
Substance: GPDTRRKFISFLYKEL

P8_MAL Rank (after) [9]: 615
P8_MAL Rank (before) [10]: 1508
Substance: YFLHLLLFSRPETVYI

P8_MAL Rank (after) [1]: 551
P8_MAL Rank (before) [2]: 2253
Substance: RKFWAYLFQALANKGS

Rank (after) [11]: 424
Rank (before) [12]: 1898
Substance: DWFLSKLNQHLLKREK

P3_MAL Rank (after) [7]: 231
P3_MAL Rank (before) [8]: 827
Substance: LQNQWKLALTQAAN

Population: 0.00309%
Substance: WFYERLVSLILRDTKE

P3_MAL Rank (after) [5]: 756
P3_MAL Rank (before) [6]: 1328
Substance: SNLRPKVMNYLMRTKT

Population: 0.00309%
Substance: HFFGFN*KAFWAKPAX

P8_MAL Rank (after) [1]: 500
P8_MAL Rank (before) [2]: 1159
Substance: WFYERLLTVIDRDTEV
